Literature values as cited in paper PMC12177174 (iScience, 2025).

Key:
[1] = cited from earlier work
bone mineral density = details: cited from earlier work
tumor = details: cited from earlier work

For `Cn1c(=O)c2c(ncn2CC(=O)Nc2ccc(-c3ccccc3)nn2)n(C)c1=O` [ETC-159], the participants reporting dysgeusia [1] is given as ≤ 50%, the “circulating CTX-1 levels” value ([1]; patients with advanced cancer) is given as “increased circulating CTX-1 levels” and the bone mineral density (bone mineral density) is given as “caused loss of bone mineral density”. The tumor response (tumor) was “induces tumor regression”.
